Experiments:
[1] = test system: female Cr1:CD1(ICR) mice; experiment: Tail immersion assay in mice (analgesic potential, in combination with anandamide); details: for % MPE (percent of the maximum possible effect (test-baseline)/(10-baseline)) / Test Time / Baseline Time: mean; for Baseline Time: prior to administration of compounds, tail in water 52+/−1° C.; for analgesic effects at the rate tested (conclusion) / % of the treated animals exhibiting the maximum measured response time of 10 sec: 10 mg/kg i.p. plus anandamide 50 mg/kg
Description: Test substances were injected once by intraperitoneal (i.p.) route to female Cr1:CD1(ICR) mice. The tail immersion assay was conducted prior to administration of compounds to establish baseline values and again after administration of compounds.
Analgesia was evaluated in female mice by immersing approximately 3.5 cm of each tail into water that was maintained at 52+/−1° C. for a maximum of 10 seconds (sec). The length of time until the animal removed its tail from the water or made a significant tail movement was measured. If the response time was less than 5 sec, a second trial was conducted.
Based on the results of the preliminary study, the time interval between administration of the test substances and anandamide was established as 40 minutes. In addition, the time interval between administration of anandamide and conducting the tail immersion assay was established to be 40 minutes.
The formulations were made on the day of dosing and administered once by intraperitoneal route.

[2] = cited from earlier work
[3] = biological target: T1, recombinant human FAAH (MBP-ΔTM-FAAH) (Homo sapiens, UniProt O00519); experiment: FAAH assay, fluorogenic substrate D-AMC; type: biochemical; details: D-AMC 5 μM, pH 8.0, 37° C.
T1 construct: The region of the gene corresponding to amino acids 34 to 579 was cloned into pMAL-c4x; made in house; host or cells: E. coli T7 Express
T1 sequence (O00519 34-579): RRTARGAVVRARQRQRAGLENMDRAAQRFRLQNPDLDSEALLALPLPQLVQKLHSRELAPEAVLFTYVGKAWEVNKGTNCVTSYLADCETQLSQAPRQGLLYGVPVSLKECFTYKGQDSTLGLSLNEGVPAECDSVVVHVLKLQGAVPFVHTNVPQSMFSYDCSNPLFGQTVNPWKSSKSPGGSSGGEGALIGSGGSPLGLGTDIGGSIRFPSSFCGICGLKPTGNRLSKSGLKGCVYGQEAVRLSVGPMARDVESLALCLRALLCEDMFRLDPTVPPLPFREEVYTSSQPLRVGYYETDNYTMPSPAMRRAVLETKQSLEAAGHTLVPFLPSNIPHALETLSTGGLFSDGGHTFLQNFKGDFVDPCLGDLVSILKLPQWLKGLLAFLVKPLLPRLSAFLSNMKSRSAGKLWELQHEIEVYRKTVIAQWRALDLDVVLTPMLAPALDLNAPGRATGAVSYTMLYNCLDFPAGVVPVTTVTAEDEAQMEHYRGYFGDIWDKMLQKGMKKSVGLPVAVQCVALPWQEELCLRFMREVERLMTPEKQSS
Description: E. coli T7 Express cells, containing the FAAH constructs, were used for expression of protein by induction with IPTG (isopropyl-β-D-thiogalactopyranoside) (100 μM) overnight at room temperature in Lennox Broth with 0.2% glucose. After harvest, the cells were resuspended in 20 mM Hepes buffer (pH 7.4) containing 200 mM NaCl, 2 mM DTT (dithiothreitol). The cell suspension was lysed by sonication, and the cell debris removed by centrifugation. […] The enzyme was eluted using 15 mM maltose as per manufacturer's (New England BioLabs, Inc.) instruction. Fractions containing FAAH were concentrated and further purified using Sephacryl™ 5100 (HIPrep™ 26/60, GE Healthcare, Inc.) chromatography. […]
FAAH assay—Enzyme activity was measured using the fluorogenic substrate, decanoyl 7-amino-4-methylcoumarin (D-AMC) as described by Kage, K. L. et al. J. of Neuroscience Methods 2007, 161, 47-54. […] Reactions were carried out in black 96-well microplates (Costar, Inc) using a SpectraMax Gemini™ (Molecular Devices, Inc.) fluorescence plate reader in a reaction volume of 200 μL per well at 37° C. Reaction rates were monitored at an emission wavelength of 430 nm using an excitation wavelength of 351 nm over 30 to 40 minutes. Experimental compounds were initially evaluated at a single concentration of 2 μM.

[4] = anandamide 50 mg/kg i.p. alone (negative control), assay 40 minutes after
[5] = 10 mg/kg i.p., anandamide 50 mg/kg i.p. 40 minutes later, assay 40 minutes after anandamide
[6] = 10 mg/kg i.p., anandamide 50 mg/kg i.p. 40 minutes later, assay 40 minutes after anandamide, maximum 10 sec

| IC50 [3] [nM] | Structure (SMILES) | % MPE (percent of the maximum possible effect (test-baseline)/(10-baseline)) [1, 4] [%] | Test Time [1, 4] [s] | Baseline Time ([1]; maximum 10 sec) [s] | causing hypothermia or analgesia ([2]; anandamide alone) | analgesic effects at the rate tested (conclusion) [1] | % MPE (percent of the maximum possible effect (test-baseline)/(10-baseline)) [1, 5] [%] | Test Time [1, 6] [s] | % of the treated animals exhibiting the maximum measured response time of 10 sec [1] [%] | analgesic effect ([2]; anandamide administered along with OL-135) |
| --- | --- | --- | --- | --- | --- | --- | --- | --- | --- | --- |
| – | CCCCC/C=C\C/C=C\C/C=C\C/C=C\CCCC(=O)NCCO [Anandamide, reference compound] | 20.3 | 6.7 | 6.9 | largely ineffective | – | – | – | – | – |
| – | O=C(Nc1ccccc1)N1CCC(c2nc(C3=NOC(c4ccccc4)C3)cs2)CC1 (stereo not drawn) [Compound 1, 4-[4-(4,5-dihydro-5-phenyl-3-isoxazolyl)-2-thiazolyl]-N-phenyl-1-piperidinecarboxamide] | – | – | 3.5 | – | no analgesic effects | 20.2 | 5.0 | – | – |
| – | O=C(Oc1ccccc1)N1CCC(c2nc(C3=NOC(c4ccccc4)C3)cs2)CC1 (stereo not drawn) [Compound 11, phenyl 4-[4-(4,5-dihydro-5-phenyl-3-isoxazolyl)-2-thiazolyl]-1-piperidinecarboxylate] | – | – | 5.8 | – | analgesic effects | 100.0 | 10.0 | 100 | – |
| – | O=C(Nc1nccs1)N1CCC(c2nc(C3=NOC(c4ccccc4)C3)cs2)CC1 (stereo not drawn) [Compound 49] | – | – | 7.5 | – | no analgesic effects | −4.0 | 6.4 | – | – |
| 29 | O=C(Oc1ccccc1)N1CCC(c2nc(C3=NOC4(CCCc5ccccc54)C3)cs2)CC1 (stereo not drawn) [Compound 52] | – | – | – | – | – | – | – | – | – |
| – | O=C(Oc1ccccc1Cl)N1CCC(c2nc(C3=NOC(c4ccccc4)C3)cs2)CC1 (stereo not drawn) [Compound 61] | – | – | 6.0 | – | analgesic effects | 86.9 | 9.4 | 90 | – |
| – | O=C(CCCCCCc1ccccc1)c1ncc(-c2ccccn2)o1 [OL-135, reference compound] | – | – | 4.1 | – | – | 61.5 | 7.6 | – | significantly elevated |
